Target: BRD4 (Homo sapiens, UniProt O60885)
Assay: BRD4 degradation, immunofluorescence imaging in MDA-MB-468 cells
Assay type: cell-based
Design: endogenous in cells; host or cells: MDA-MB-468
Conditions: 4 nM, 43 h, relative to untreated cells
Experimental: BRD4 was chosen as the model protein for the disclosed invention due to the strong pharmacological effect (cell death) that is induced upon degradation of BRD4. For the evaluation of targeted BRD4 degradation, MDA-MB-468 cells were seeded into a black 96 well clear bottom plates (10,000 cells/well) followed by incubation (37° C., 5% CO2) in a humid chamber overnight. Test compounds were added using a D300e digital dispenser (Tecan) and incubated for 43 h (37° C., 5% CO2, humid chamber). Cells were washed 3× with PBS, fixed in 2% (v/V) formaldehyde for 15 min at rt and washed again (3×). To permeabilize cells, 0.2% (v/V) Triton-X-100 was added for 10 min at rt and removed by washing with PBS (3×). Wells were blocked with 3% (w/v) BSA in PBS for 60 min at rt, washed trice, and cells were incubated with 2.3 μg/mL rabbit anti-BRD4 antibody (Abcam) diluted in 3% BSA/PBS for […] at 4° C. overnight. […] After a final washing step, cells were preserved in 0.1% (w/V) sodium azide and transferred to a Cytation 5 cell imaging reader (Biotek). […] For quantitative analysis of nuclear BRD4 levels, only the green fluorescence (AF488) co-localized with DAPI staining was counted. Green fluorescence was normalized to cell number and expressed relative to untreated cells.

SMILES: Cc1ncsc1-c1ccc(CNC(=O)[C@@H]2C[C@@H](O)CN2C(=O)[C@@H](NC(=O)CCCCCCCCCCNC(=O)c2cc3c(cc2CS(C)(=O)=O)-c2cn(C)c(=O)c4[nH]cc(c24)CN3c2ncc(F)cc2F)C(C)(C)C)cc1 [GNE987]
- remaining BRD4: 39.0%

Source: patent publication US20250312468A1, “ANTI-PROTAC ANTIBODIES AND COMPLEXES” (Merck Patent GmbH, priority 2021, published 2025)
